Laboratory results: the supplement of paper PMC10307832

Assays:
Assay in all cases: relative viability (nuclei count vs DMSO), 5 days (fraction); higher = more cells survive
BEN = system: BEN
How it was run: (§1)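 Lung cancer cell lines, seeded in 1536-well plates, were treated the following day by pin tool with a single drug or with five library-drug doses (not always all listed) in √10 steps on top of a fixed anchor-drug dose. Cells were fixed and nuclei stained in one step after 5 days, and nuclei were counted. Relative viability is the nuclei count for treated wells divided by that for vehicle wells, reported as medians of duplicate plates.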

EMC-BAC-2 = system: EMC-BAC-2
How it was run: as §1

H3255 = system: H3255
How it was run: as §1

HOP-62 = system: HOP-62
How it was run: as §1

LCLC-97TM1 = system: LCLC-97TM1
How it was run: as §1

LXF-289 = system: LXF-289
How it was run: as §1

NCI-H1650 = system: NCI-H1650
How it was run: as §1

NCI-H1915 = system: NCI-H1915
How it was run: as §1

NCI-H1993 = system: NCI-H1993
How it was run: as §1

NCI-H2009 = system: NCI-H2009
How it was run: as §1

NCI-H2023 = system: NCI-H2023
How it was run: as §1

NCI-H2085 = system: NCI-H2085
How it was run: as §1

NCI-H2126 = system: NCI-H2126
How it was run: as §1

NCI-H2342 = system: NCI-H2342
How it was run: as §1

NCI-H2347 = system: NCI-H2347
How it was run: as §1

NCI-H322M = system: NCI-H322M
How it was run: as §1

NCI-H358 = system: NCI-H358
How it was run: as §1

NCI-H647 = system: NCI-H647
How it was run: as §1

NCI-H661 = system: NCI-H661
How it was run: as §1

NCI-H727 = system: NCI-H727
How it was run: as §1

PC-14 = system: PC-14
How it was run: as §1

SK-LU-1 = system: SK-LU-1
How it was run: as §1

SW 1573 = system: SW 1573
How it was run: as §1

SMILES: CC(C)Oc1cc(Nc2nc(N[C@@H](C)c3ccc(F)cn3)ncc2Cl)n[nH]1 [AZ23] + CC(=O)Nc1cccc(-n2c(=O)n(C3CC3)c(=O)c3c(Nc4ccc(I)cc4F)n(C)c(=O)c(C)c32)c1 [Trametinib] (partner 0.02 µM)
- relative viability (BEN; first compound 0.01 µM): 0.909
- relative viability (BEN; first compound 0.03162 µM): 1.14
- relative viability (BEN; first compound 0.3162 µM): 1.09
- relative viability (EMC-BAC-2; first compound 0.01 µM): 0.911
- relative viability (EMC-BAC-2; first compound 0.03162 µM): 0.912
- relative viability (EMC-BAC-2; first compound 0.3162 µM): 0.898
- relative viability (H3255; first compound 0.01 µM): 0.595
- relative viability (H3255; first compound 0.03162 µM): 0.609
- relative viability (H3255; first compound 0.3162 µM): 0.632
- relative viability (HOP-62; first compound 0.01 µM): 0.377
- relative viability (HOP-62; first compound 0.03162 µM): 0.382
- relative viability (HOP-62; first compound 0.3162 µM): 0.356
- relative viability (LCLC-97TM1; first compound 0.01 µM): 0.238
- relative viability (LCLC-97TM1; first compound 0.03162 µM): 0.209
- relative viability (LCLC-97TM1; first compound 0.3162 µM): 0.189
- relative viability (LXF-289; first compound 0.01 µM): 0.74
- relative viability (LXF-289; first compound 0.03162 µM): 0.671
- relative viability (LXF-289; first compound 0.3162 µM): 0.615
- relative viability (NCI-H1650; first compound 0.01 µM): 0.546
- relative viability (NCI-H1650; first compound 0.03162 µM): 0.589
- relative viability (NCI-H1650; first compound 0.3162 µM): 0.659
- relative viability (NCI-H1915; first compound 0.01 µM): 0.303
- relative viability (NCI-H1915; first compound 0.03162 µM): 0.297
- relative viability (NCI-H1915; first compound 0.3162 µM): 0.239
- relative viability (NCI-H1993; first compound 0.01 µM): 0.551
- relative viability (NCI-H1993; first compound 0.03162 µM): 0.493
- relative viability (NCI-H1993; first compound 0.3162 µM): 0.449
- relative viability (NCI-H2009; first compound 0.01 µM): 0.257
- relative viability (NCI-H2009; first compound 0.03162 µM): 0.243
- relative viability (NCI-H2009; first compound 0.3162 µM): 0.284
- relative viability (NCI-H2023; first compound 0.03162 µM): 0.602
- relative viability (NCI-H2023; first compound 0.3162 µM): 0.48
- relative viability (NCI-H2085; first compound 0.01 µM): 0.477
- relative viability (NCI-H2085; first compound 0.03162 µM): 0.746
- relative viability (NCI-H2085; first compound 0.3162 µM): 0.538
- relative viability (NCI-H2126; first compound 0.01 µM): 0.574
- relative viability (NCI-H2126; first compound 0.03162 µM): 0.556
- relative viability (NCI-H2126; first compound 0.3162 µM): 0.532
- relative viability (NCI-H2342; first compound 0.01 µM): 0.752
- relative viability (NCI-H2342; first compound 0.03162 µM): 0.828
- relative viability (NCI-H2342; first compound 0.3162 µM): 0.72
- relative viability (NCI-H2347; first compound 0.01 µM): 0.272
- relative viability (NCI-H2347; first compound 0.03162 µM): 0.272
- relative viability (NCI-H2347; first compound 0.3162 µM): 0.232
- relative viability (NCI-H322M; first compound 0.01 µM): 0.454
- relative viability (NCI-H322M; first compound 0.03162 µM): 0.481
- relative viability (NCI-H322M; first compound 0.3162 µM): 0.565
- relative viability (NCI-H358; first compound 0.01 µM): 0.116
- relative viability (NCI-H358; first compound 0.03162 µM): 0.137
- relative viability (NCI-H358; first compound 0.3162 µM): 0.124
- relative viability (NCI-H647; first compound 0.01 µM): 0.61
- relative viability (NCI-H647; first compound 0.03162 µM): 0.58
- relative viability (NCI-H647; first compound 0.3162 µM): 0.509
- relative viability (NCI-H661; first compound 0.01 µM): 0.611
- relative viability (NCI-H661; first compound 0.03162 µM): 0.575
- relative viability (NCI-H661; first compound 0.3162 µM): 0.547
- relative viability (NCI-H727; first compound 0.01 µM): 0.365
- relative viability (NCI-H727; first compound 0.03162 µM): 0.36
- relative viability (NCI-H727; first compound 0.3162 µM): 0.389
- relative viability (PC-14; first compound 0.01 µM): 0.599
- relative viability (PC-14; first compound 0.03162 µM): 0.783
- relative viability (PC-14; first compound 0.3162 µM): 0.749
- relative viability (SK-LU-1; first compound 0.03162 µM): 0.509
- relative viability (SK-LU-1; first compound 0.3162 µM): 0.474
- relative viability (SW 1573; first compound 0.01 µM): 0.693
- relative viability (SW 1573; first compound 0.03162 µM): 0.604
- relative viability (SW 1573; first compound 0.3162 µM): 0.458
